Some test systems named below: MDA-MB-231 breast; MALME-3M melanoma; A498 renal; A549 NSCLC; OVCAR-5 ovarian; OVCAR-3 ovarian; SK-MEL-5 melanoma; NCI-H226 lung; SK-MEL-2 melanoma; HCT-116 colon.
Holding throughout (experiment): NCI anticancer screen, dose series, 48 h

In PubChem BioAssay (NCI) one finds GI50 and TGI data, which are given here for 10 compounds.

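In this assay, cells in 96-well plates receive the compound at five concentrations for 48 hours. Endpoints are linearly interpolated between the surrounding concentrations. Abbreviation: GI50, concentration required for 50% inhibition of growth. TGI denotes the concentration required for complete inhibition of growth.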

As to `O=C1C(Cl)=C(NCCCN(CCCNC2=C(Cl)C(=O)c3ccccc3C2=O)C2=C(Cl)C(=O)c3ccccc3C2=O)C(=O)c2ccccc21`, the GI50 with MDA-MB-231 breast is 1.93 µM; in the assay with MALME-3M melanoma, 1.62 µM; with A498 renal, 19.6 µM; in the assay with A549 NSCLC, 3.43 µM; in the assay with OVCAR-5 ovarian, 4.85 µM; with OVCAR-3 ovarian, 1.71 µM. Besides, the GI50 was 1.18 µM in the assay with SK-MEL-5 melanoma and 17.3 µM in the assay on NCI-H226 lung. In addition, the TGI in the assay with MALME-3M melanoma was 3.29 µM; in the assay on A498 renal it was 39.4 µM; with A549 NSCLC, > 100 µM; in the assay with OVCAR-5 ovarian, 17.2 µM; in the assay on OVCAR-3 ovarian it was 5.71 µM; with SK-MEL-5 melanoma, 2.43 µM. This compound also came in with a TGI with NCI-H226 lung of 35.1 µM.

For `COc1ccc2c(c1)C(=O)c1c-2n(CCCN(C)C)c(=O)c2cc([N+](=O)[O-])ccc12`, the GI50 in the assay with MDA-MB-231 breast was 1.08 µM; with MALME-3M melanoma it was 0.0207 µM; in the assay with A498 renal it was 0.036 µM; in the assay with OVCAR-5 ovarian it was 0.0235 µM; with OVCAR-3 ovarian, 0.0191 µM; with SK-MEL-2 melanoma, 0.545 µM. Besides, the GI50 with SK-MEL-5 melanoma is < 0.01 µM; in the assay on NCI-H226 lung, < 0.0227 µM; in the assay with HCT-116 colon it was < 0.01 µM. Also, the TGI was 2.83 µM in the assay with MDA-MB-231 breast; 0.892 µM in the assay with MALME-3M melanoma; 0.694 µM in the assay on A498 renal; 0.394 µM with OVCAR-5 ovarian; 0.748 µM in the assay with OVCAR-3 ovarian; 7.17 µM in the assay with SK-MEL-2 melanoma. The TGI in the assay on SK-MEL-5 melanoma was < 0.012 µM; with NCI-H226 lung it was 1.53 µM; in the assay on HCT-116 colon, 0.21 µM.

Regarding `COc1ccc2nc3ccccc3c(NCCCCN(CCCl)CCCl)c2c1`, the TGI is 16.7 µM with MDA-MB-231 breast; 0.725 µM in the assay with MALME-3M melanoma; 4.21 µM in the assay on A498 renal; 6.25 µM in the assay on A549 NSCLC; > 23.6 µM in the assay on OVCAR-5 ovarian; 2.06 µM in the assay on SK-MEL-2 melanoma. Moreover, the results for the TGI in the assay on SK-MEL-5 melanoma, with NCI-H226 lung and in the assay on HCT-116 colon were 3.37 µM, 9.65 µM and 1.32 µM, respectively.

`COC(=O)c1cc2cc(/C=C3/SC(=S)N(N(C(C)=O)C(C)=O)C3=O)oc2n1Cc1ccccc1`: the GI50 in the assay on MDA-MB-231 breast was 20.6 µM; with A549 NSCLC, 18.1 µM; in the assay with OVCAR-5 ovarian it was 19 µM; in the assay on OVCAR-3 ovarian, 19.5 µM; with SK-MEL-2 melanoma it was 40.3 µM; in the assay with SK-MEL-5 melanoma, 25.7 µM. Moreover, the GI50 in the assay on NCI-H226 lung was 21.9 µM. Moreover, the TGI in the assay on MDA-MB-231 breast was 50.4 µM; with A549 NSCLC, 45.9 µM; in the assay on OVCAR-5 ovarian it was 38.1 µM; in the assay on OVCAR-3 ovarian, 51 µM; in the assay with SK-MEL-2 melanoma, > 100 µM; in the assay on SK-MEL-5 melanoma it was 62.7 µM. In addition, the TGI in the assay on NCI-H226 lung stood at 45.2 µM.

On to `COc1ccc(-c2c(-c3ccc(C#N)c(F)c3)nc(N3CCC(N)CC3)n(C)c2=O)cc1F`, for which the GI50 in the assay with MDA-MB-231 breast was 12.5 µM; in the assay with MALME-3M melanoma, 13.4 µM; in the assay with A549 NSCLC, 29.8 µM; in the assay on OVCAR-5 ovarian, 14.4 µM; in the assay on OVCAR-3 ovarian, 21.7 µM; in the assay with SK-MEL-2 melanoma, 18.5 µM. Besides, the GI50 is 14.9 µM with SK-MEL-5 melanoma, 50 µM in the assay on NCI-H226 lung and 13.1 µM in the assay with HCT-116 colon. Besides, the TGI is 26.7 µM with MDA-MB-231 breast; 27.5 µM in the assay with MALME-3M melanoma; > 100 µM in the assay on A549 NSCLC; 44.2 µM with OVCAR-5 ovarian; 77.4 µM with OVCAR-3 ovarian; 38.6 µM in the assay with SK-MEL-2 melanoma. Moreover, the values for the TGI in the assay on SK-MEL-5 melanoma, in the assay on NCI-H226 lung and in the assay with HCT-116 colon were 28.4 µM, > 100 µM and > 100 µM, respectively.

`O=C(Oc1c(Cl)cc(Cl)cc1Cl)c1ccccc1Nc1ccnc(C(F)(F)F)c1`: the GI50 with MDA-MB-231 breast was 3.25 µM; in the assay on A549 NSCLC, 3.9 µM; in the assay on OVCAR-5 ovarian, 4.1 µM; with OVCAR-3 ovarian, 4.3 µM; in the assay with SK-MEL-2 melanoma, 31.1 µM; in the assay on SK-MEL-5 melanoma, 3.07 µM. Also, the values for the GI50 in the assay on NCI-H226 lung and with HCT-116 colon were 5.93 µM and 1.72 µM, respectively. Also, the TGI in the assay on MDA-MB-231 breast is 18.9 µM; in the assay on A549 NSCLC, 71.5 µM; with OVCAR-5 ovarian, 16.5 µM; with OVCAR-3 ovarian it was > 100 µM; in the assay with SK-MEL-2 melanoma it was > 100 µM; in the assay with SK-MEL-5 melanoma, > 100 µM. Further, the TGI with NCI-H226 lung stood at 24.6 µM; in the assay with HCT-116 colon, 4.28 µM.

In the case of `O=C1Cc2cc(CCN3CCNCC3)c(Cl)cc2N1`, the GI50 in the assay on MDA-MB-231 breast was 3.9 µM; in the assay with A498 renal, 2.85 µM; in the assay on A549 NSCLC it was 6.85 µM; in the assay on OVCAR-5 ovarian, 79.2 µM; with OVCAR-3 ovarian it was 14.1 µM; with SK-MEL-2 melanoma, 15.2 µM. The GI50 with SK-MEL-5 melanoma was 5.33 µM; in the assay on NCI-H226 lung it was > 100 µM; in the assay with HCT-116 colon it was 10 µM. Besides, the TGI in the assay with MDA-MB-231 breast, with A498 renal, in the assay on A549 NSCLC, with OVCAR-5 ovarian, in the assay with OVCAR-3 ovarian and in the assay with SK-MEL-2 melanoma was > 100 µM throughout. The TGI with SK-MEL-5 melanoma, with NCI-H226 lung and in the assay on HCT-116 colon was > 100 µM each time.

Consider `COc1ccc2c(c1)-c1c(c3cc(OC)ccc3n(CCN(C)C)c1=O)C2=O`, for which the GI50 in the assay with MDA-MB-231 breast was 1.54 µM; with MALME-3M melanoma it was 1.17 µM; in the assay with A498 renal, 1.36 µM; with A549 NSCLC, 0.388 µM; in the assay on OVCAR-5 ovarian it was 3.14 µM; with OVCAR-3 ovarian, 0.843 µM. The results for the GI50 with SK-MEL-5 melanoma, in the assay with NCI-H226 lung and in the assay with HCT-116 colon were 2.6 µM, 0.665 µM and 0.241 µM, respectively. Besides, the TGI with MDA-MB-231 breast was 8.07 µM; in the assay on MALME-3M melanoma it was 5.65 µM; with A498 renal, 6.48 µM; in the assay on A549 NSCLC, 2.97 µM; with OVCAR-5 ovarian, 12.7 µM; with OVCAR-3 ovarian it was 4.73 µM. Also, the TGI amounted to 8.92 µM with SK-MEL-5 melanoma, 10.4 µM in the assay with NCI-H226 lung and 6.85 µM with HCT-116 colon.

On to `CC1=C(C(=O)Nc2ccc(Cl)c(Cl)c2)C(c2cccc(Cl)c2)NC(=S)N1` (centres undefined), for which the GI50 with MDA-MB-231 breast was 8.15 µM; in the assay with MALME-3M melanoma, 10.9 µM; in the assay with A549 NSCLC it was 11.2 µM; with OVCAR-3 ovarian, 10.5 µM; with SK-MEL-2 melanoma, 14.5 µM; in the assay on SK-MEL-5 melanoma, 2 µM. In the assay on HCT-116 colon, the GI50 was 7.75 µM. The TGI came out at 19.3 µM in the assay on MDA-MB-231 breast; 29.8 µM with MALME-3M melanoma; 48.3 µM in the assay on A549 NSCLC; 37.5 µM with OVCAR-3 ovarian; 27.1 µM in the assay on SK-MEL-2 melanoma; 4.32 µM in the assay with SK-MEL-5 melanoma. Moreover, in the assay with HCT-116 colon, the TGI came out at 21.5 µM.

With `O=C1C=CC(=O)c2c1nc(CBr)[nH]c2=O`, the TGI in the assay with MDA-MB-231 breast, with MALME-3M melanoma, in the assay with A498 renal, in the assay with A549 NSCLC, in the assay with OVCAR-5 ovarian and in the assay with OVCAR-3 ovarian was > 100 µM each time. In addition, the TGI in the assay with SK-MEL-2 melanoma, in the assay with SK-MEL-5 melanoma and in the assay on HCT-116 colon was > 100 µM throughout.
